Results: ChEMBL document CHEMBL4732190, “Identification of Potent and Long-Acting Single-Chain Peptide Mimetics of Human Relaxin-2 for Cardiovascular Diseases” (J Med Chem, 2021)

Experiments:
Relaxin receptor 1 [1] = biological target: T1, Relaxin receptor 1 (Rattus norvegicus, UniProt Q6R6I6); test: Agonist activity at rat RXFP1 expressed in human […] cells assessed as increase in IBMX-induced cAMP accumulation pretreated with IBMX for 40 mins followed by compound addition and measured after 30 mins by HTRF assay; assay type: cell-based, HEK293
T1 sequence (Q6R6I6 whole entry): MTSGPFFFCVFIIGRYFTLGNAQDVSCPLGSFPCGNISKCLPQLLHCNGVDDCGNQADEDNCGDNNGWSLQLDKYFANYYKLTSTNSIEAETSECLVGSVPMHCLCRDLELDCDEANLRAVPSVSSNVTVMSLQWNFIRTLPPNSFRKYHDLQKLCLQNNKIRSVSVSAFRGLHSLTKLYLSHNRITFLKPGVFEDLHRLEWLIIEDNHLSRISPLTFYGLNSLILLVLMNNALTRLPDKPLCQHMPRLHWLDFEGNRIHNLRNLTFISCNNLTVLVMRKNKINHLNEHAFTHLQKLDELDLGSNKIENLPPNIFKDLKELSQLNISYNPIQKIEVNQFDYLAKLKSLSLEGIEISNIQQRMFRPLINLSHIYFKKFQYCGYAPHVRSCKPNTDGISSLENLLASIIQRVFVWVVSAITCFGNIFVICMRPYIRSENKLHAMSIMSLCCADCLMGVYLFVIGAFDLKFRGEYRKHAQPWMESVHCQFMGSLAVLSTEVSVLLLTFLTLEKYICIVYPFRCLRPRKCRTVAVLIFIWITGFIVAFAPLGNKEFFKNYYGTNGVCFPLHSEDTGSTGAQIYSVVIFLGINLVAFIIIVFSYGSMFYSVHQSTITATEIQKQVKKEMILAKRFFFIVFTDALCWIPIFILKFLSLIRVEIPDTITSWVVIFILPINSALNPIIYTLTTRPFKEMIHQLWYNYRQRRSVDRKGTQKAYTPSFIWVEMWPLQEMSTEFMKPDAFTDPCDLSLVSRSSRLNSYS

Relaxin receptor 1 [2] = biological target: T2, Relaxin receptor 1 (Homo sapiens, UniProt Q9HBX9); test: Displacement of Eu3+-labelled H2 relaxin from human RXFP1 expressed in human HEK-293T cells in presence of 10 % FCS by competition binding assay; assay type: cell-based
T2 sequence (Q9HBX9 whole entry): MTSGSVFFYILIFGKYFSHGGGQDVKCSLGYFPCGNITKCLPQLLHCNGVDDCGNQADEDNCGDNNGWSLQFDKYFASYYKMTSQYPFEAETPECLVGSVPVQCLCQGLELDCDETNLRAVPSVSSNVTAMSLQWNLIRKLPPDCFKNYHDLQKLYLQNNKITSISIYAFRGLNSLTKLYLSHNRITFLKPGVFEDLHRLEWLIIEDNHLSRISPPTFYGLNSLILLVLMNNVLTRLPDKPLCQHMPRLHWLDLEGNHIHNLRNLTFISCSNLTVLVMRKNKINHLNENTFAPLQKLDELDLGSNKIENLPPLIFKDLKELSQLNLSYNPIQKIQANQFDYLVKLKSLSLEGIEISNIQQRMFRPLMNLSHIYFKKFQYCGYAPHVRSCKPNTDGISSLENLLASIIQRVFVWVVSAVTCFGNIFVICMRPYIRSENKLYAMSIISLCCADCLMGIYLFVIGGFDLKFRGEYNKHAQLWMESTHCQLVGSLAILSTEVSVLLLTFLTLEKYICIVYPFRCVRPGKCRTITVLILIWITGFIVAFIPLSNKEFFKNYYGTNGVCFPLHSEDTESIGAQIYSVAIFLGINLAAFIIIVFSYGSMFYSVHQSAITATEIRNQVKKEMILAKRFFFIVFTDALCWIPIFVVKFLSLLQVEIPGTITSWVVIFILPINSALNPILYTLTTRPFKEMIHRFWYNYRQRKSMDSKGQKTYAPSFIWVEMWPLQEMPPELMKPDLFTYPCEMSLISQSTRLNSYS

[3] = Half life in Sprague-Dawley rat at 1 mg/kg, iv measured upto 72 hrs by LC-HRMS analysis; assay type: ADME, organism-based; conditions: in vivo
Relaxin receptor 1 [4] = biological target: T2, Relaxin receptor 1; test: Agonist activity at human RXFP1 expressed in human HEK-293T cells co-transfected with pCRE beta-galactosidase reporter plasmid assessed as […] of IBMX-induced cAMP accumulation incubated for 30 mins by HTRF assay; assay type: functional, cell-based
Relaxin receptor 1 [5] = biological target: T2, Relaxin receptor 1; test: Agonist activity at RXFP1 endogenously expressed in human OVCAR-5 cells assessed as increase in IBMX-induced cAMP accumulation pretreated with IBMX for 40 mins followed by compound addition and measured after 30 mins by HTRF assay; assay type: functional, cell-based
[6] = biological target: T3, Relaxin receptor 1 (Rattus norvegicus) (UniProt Q6R6I6); test: Agonist activity at rat RXFP1 expressed in human […] cells assessed as increase in IBMX-induced cAMP accumulation pretreated with IBMX for 40 mins followed by compound addition and measured after 30 mins by HTRF assay relative to control; assay type: cell-based; conditions: HEK293, filed as agonist
T3 sequence (whole entry): T1 sequence (Q6R6I6 whole entry)

[7] = biological target: T4, Relaxin receptor 1 (Homo sapiens) (UniProt Q9HBX9); test: Agonist activity at RXFP1 endogenously expressed in human OVCAR-5 cells assessed as increase in IBMX-induced cAMP accumulation pretreated with IBMX for 40 mins followed by compound addition and measured after 30 mins by HTRF assay relative to relaxin; assay type: functional, cell-based; conditions: filed as agonist
T4 sequence (whole entry): T2 sequence (Q9HBX9 whole entry)

[8] = Positive chronotropic activity in pithed Sprague-Dawley rat assessed as increase in heart rate at 10 microg/kg, iv administered as bolus dose recorded over 60 mins relative to control; assay type: ADME, organism-based; conditions: in vivo, 0.01 mg/kg, 1 h, dose 10 µg/kg

Work on `CC[C@H](C)[C@@H]1NC(=O)[C@H](C)NC(=O)[C@H]([C@@H](C)CC)NC(=O)[C@H](CCC(N)=O)NC(=O)[C@H](C)NC(=O)[C@H](CCCNC(=N)N)NC(=O)[C@H](C(C)C)NC(=O)[C@H](CC(C)C)NC(=O)[C@H](CCC(=O)O)NC(=O)[C@H](CCCNC(=N)N)NC(=O)CNC(=O)[C@@H](NC(=O)[C@H](CC(C)C)NC(=O)[C@H](CCCCN)NC(=O)[C@@H](NC(=O)[C@@H](NC(=O)[C@H](CCC(=O)O)NC(=O)[C@H](CCC(=O)O)NC(=O)[C@H](CCSC)NC(=O)[C@H](Cc2c[nH]c3ccccc23)NC(=O)[C@H](CO)NC(=O)[C@@H](N)CC(=O)O)C(C)C)[C@@H](C)CC)CSSC[C@@H]2NC(=O)[C@@H](NC(=O)[C@H](CCCCN)NC(=O)[C@H](CC(N)=O)NC(=O)[C@H](C)NC(=O)[C@H](CC(C)C)NC(=O)[C@H](C)NC(=O)[C@H](CO)NC(=O)[C@H](Cc3ccc(O)cc3)NC(=O)[C@@H](N)CC(C)C)CSCCSC[C@H](NC(=O)CNC(=O)[C@H](C(C)C)NC(=O)[C@H](Cc3cnc[nH]3)NC2=O)C(=O)N[C@@H]([C@@H](C)O)C(=O)N[C@@H](CCCCN)C(=O)N[C@@H](CCCNC(=N)N)C(=O)N[C@@H](CO)C(=O)N[C@@H](CC(C)C)C(=O)N[C@@H](C)C(=O)N[C@@H](CCCNC(=N)N)C(=O)N[C@@H](Cc2ccccc2)C(=O)NC(C(=O)O)CSSC[C@@H](C(=O)NCC(=O)N[C@@H](CCSC)C(=O)N[C@@H](CO)C(=O)N[C@H](C(=O)N[C@@H](Cc2c[nH]c3ccccc23)C(=O)N[C@@H](CO)C(=O)O)[C@@H](C)O)NC1=O` (stereo partly drawn) yielded an EC50 (Relaxin receptor 1 [1]) of 0.5 nM, a Ki (Relaxin receptor 1 [2]) of 1.1 nM and a half-life [3] of 27.6 min. The EC50 (Relaxin receptor 1 [4]) was 0.0324 nM, the EC50 (Relaxin receptor 1 [5]) was 0.42 nM and the Emax [6] was 100%. The Emax [7] was 100% and the Activity [8] was 60%.
